Several values for one entry are separate records, joined by “and”; a condition that tells them apart may be missing. Identical values can stand only once.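 Cells were grown in 96-well plates and exposed to each compound for 48 hours at five concentrations; endpoints were interpolated linearly between bracketing concentrations, or set to the highest concentration if not reached. GI50 is the concentration that inhibits growth by half. TGI denotes the concentration required for complete inhibition of growth.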
Key:
Experiment in all cases: NCI anticancer screen, dose series, 48 h
PC-3 prostate = test system: PC-3 prostate
NCI-H226 lung = test system: NCI-H226 lung
MDA-MB-435 = test system: MDA-MB-435
OVCAR-4 ovarian = test system: OVCAR-4 ovarian
IGROV1 ovarian = test system: IGROV1 ovarian
M14 melanoma = test system: M14 melanoma
SF-295 CNS = test system: SF-295 CNS
CCRF-CEM leukemia = test system: CCRF-CEM leukemia
HOP-92 NSCLC = test system: HOP-92 NSCLC
OVCAR-8 ovarian = test system: OVCAR-8 ovarian

Compound Cc1ccc(-c2nc(N3CCCNCC3)c3oc(-c4ccccc4)nc3n2)cc1 has a GI50 (PC-3 prostate) of 1.57 µM, a TGI (PC-3 prostate) of 3 µM and a GI50 (NCI-H226 lung) of 1.82 µM. It also gave a TGI (NCI-H226 lung) of 3.97 µM, a GI50 (MDA-MB-435) of 1.77 µM and a TGI (MDA-MB-435) of 3.19 µM. It also gave a GI50 (OVCAR-4 ovarian) of 1.82 µM, a TGI (OVCAR-4 ovarian) of 3.55 µM and a GI50 (IGROV1 ovarian) of 1.67 µM. For the same compound, the TGI (IGROV1 ovarian) was 3.24 µM, the GI50 (M14 melanoma) was 1.76 µM and the TGI (M14 melanoma) was 3.29 µM. The GI50 (SF-295 CNS) was 1.93 µM, the TGI (SF-295 CNS) was 3.43 µM and the GI50 (CCRF-CEM leukemia) was 1.31 µM. It also gave a TGI (CCRF-CEM leukemia) of 3.13 µM.

COc1ccc2oc(C(=O)O)c3c2c1CCC3 was tested, and the TGI (HOP-92 NSCLC) was over 100 µM, the TGI (OVCAR-4 ovarian) was over 100 µM and the TGI (IGROV1 ovarian) was over 100 µM. For the same compound, the TGI (OVCAR-8 ovarian) was over 100 µM, the TGI (M14 melanoma) was over 100 µM and the TGI (SF-295 CNS) was over 100 µM. The TGI (CCRF-CEM leukemia) was over 100 µM.

With CC1OC(OC2C(CO)OC(O[C@H]3CC[C@@]4(C)C(=CC[C@H]5[C@@H]6C[C@@H]7O[C@]8(CC[C@@H](C)CN8)[C@@H](C)[C@@H]7[C@@]6(C)CC[C@@H]54)C3)C(O)C2O)C(O)C(O)C1O (some centres undefined) the TGI (HOP-92 NSCLC) was over 100 µM, the TGI (OVCAR-4 ovarian) was over 100 µM and the TGI (IGROV1 ovarian) was over 100 µM. It also gave a TGI (OVCAR-8 ovarian) of over 100 µM, a TGI (M14 melanoma) of over 100 µM and a TGI (SF-295 CNS) of over 100 µM. For the same compound, the TGI (CCRF-CEM leukemia) was over 100 µM.

For Cc1cc2c(c3oc(C4(C)OC4C4OC4C)cc(=O)c13)C(=O)c1c(O)c(C3CC(C)(N(C)C)C(O)C(C)O3)cc(C3CC(N(C)C)C(O)C(C)O3)c1C2=O (centres undefined), the TGI (NCI-H226 lung) was 0.000537 µM and 0.000944 µM, the GI50 (HOP-92 NSCLC) was 0.000258 µM and the GI50 (MDA-MB-435) was 0.000285 µM. The TGI (MDA-MB-435) was 0.000256 µM and 0.00129 µM, the GI50 (OVCAR-8 ovarian) was 0.000731 µM and 0.000103 µM and the GI50 (M14 melanoma) was 0.000101 µM. For the same compound, the TGI (M14 melanoma) was 0.000196 µM and 0.000148 µM, the TGI (SF-295 CNS) was 0.000154 µM and 0.0012 µM and the GI50 (CCRF-CEM leukemia) was 0.00013 µM. For the same compound, the TGI (CCRF-CEM leukemia) was 0.0499 µM and 0.041 µM.

CCOc1ccccc1NC(=O)CCc1n[nH]c(=S)o1 showed a TGI (NCI-H226 lung) of over 100 µM, a TGI (HOP-92 NSCLC) of over 100 µM and a TGI (M14 melanoma) of over 100 µM. It also gave a TGI (SF-295 CNS) of over 100 µM and a TGI (CCRF-CEM leukemia) of over 100 µM.

Compound CCOC(=O)/C(C#N)=C1/C(O)=C(C(=O)OC)C(C(=O)OC)=C1C(=O)OC has a TGI (HOP-92 NSCLC) of over 100 µM, a TGI (OVCAR-4 ovarian) of over 100 µM and a TGI (IGROV1 ovarian) of over 100 µM. The TGI (OVCAR-8 ovarian) was over 100 µM, the TGI (M14 melanoma) was over 100 µM and the TGI (SF-295 CNS) was over 100 µM. The TGI (CCRF-CEM leukemia) was over 100 µM.

In the case of CC[C@@H]1C[C@H]2CC3c4[nH]c5ccc(O)cc5c4CCN(C2)C31, the TGI (NCI-H226 lung) is reported as over 100 µM, the TGI (HOP-92 NSCLC) is reported as over 100 µM and the TGI (IGROV1 ovarian) is reported as over 100 µM. The TGI (OVCAR-8 ovarian) was over 100 µM, the TGI (M14 melanoma) was over 100 µM and the TGI (SF-295 CNS) was over 100 µM. The TGI (CCRF-CEM leukemia) was over 100 µM.

In the case of C=C(CN1CCN(c2cccc(C(F)(F)F)n2)CC1)c1ccc(C(=S)Nc2ccccc2N)cc1, the GI50 (NCI-H226 lung) is reported as 4.91 µM, the TGI (NCI-H226 lung) is reported as over 100 µM and the GI50 (MDA-MB-435) is reported as 3.77 µM. The TGI (MDA-MB-435) was over 100 µM, the GI50 (OVCAR-4 ovarian) was 3.01 µM and the TGI (OVCAR-4 ovarian) was over 100 µM. The GI50 (IGROV1 ovarian) was 6.93 µM, the TGI (IGROV1 ovarian) was over 100 µM and the GI50 (OVCAR-8 ovarian) was 5.33 µM. For the same compound, the TGI (OVCAR-8 ovarian) was over 100 µM, the GI50 (M14 melanoma) was 3.81 µM and the TGI (M14 melanoma) was 41.3 µM. It also gave a GI50 (SF-295 CNS) of 3.48 µM and a TGI (SF-295 CNS) of over 100 µM.

c1ccc2c(c1)[nH]c1c2nc2ncccn21 was tested, and the TGI (NCI-H226 lung) was over 100 µM, the TGI (HOP-92 NSCLC) was over 100 µM and the TGI (OVCAR-4 ovarian) was over 100 µM. For the same compound, the TGI (IGROV1 ovarian) was over 100 µM, the TGI (OVCAR-8 ovarian) was over 100 µM and the TGI (M14 melanoma) was over 100 µM. The TGI (SF-295 CNS) was over 100 µM and the TGI (CCRF-CEM leukemia) was over 100 µM.

Work on N#CC1=C(N)NC(=S)NC12Nc1ccccc1N2 yielded a GI50 (PC-3 prostate) of 28.5 µM, a TGI (PC-3 prostate) of over 100 µM and a GI50 (NCI-H226 lung) of 20.6 µM. For the same compound, the TGI (NCI-H226 lung) was 88.2 µM, the GI50 (MDA-MB-435) was 19.6 µM and the TGI (MDA-MB-435) was over 100 µM. For the same compound, the GI50 (OVCAR-4 ovarian) was over 100 µM, the TGI (OVCAR-4 ovarian) was over 100 µM and the GI50 (IGROV1 ovarian) was 26.9 µM. It also gave a TGI (IGROV1 ovarian) of over 100 µM, a GI50 (OVCAR-8 ovarian) of 38.6 µM and a TGI (OVCAR-8 ovarian) of over 100 µM. For the same compound, the GI50 (M14 melanoma) was 40 µM, the TGI (M14 melanoma) was over 100 µM and the GI50 (SF-295 CNS) was 33.1 µM. For the same compound, the TGI (SF-295 CNS) was over 100 µM, the GI50 (CCRF-CEM leukemia) was 18.2 µM and the TGI (CCRF-CEM leukemia) was over 100 µM.

Source: PubChem BioAssay (NCI)
